Results: patent US20060183733A1, “Treating microvasculature diseases with acetyl cholinesterase inhibitors” (priority 2005, published 2006)
Entries after “also recorded” stand apart in the source; their conditions may differ. Like-named read-outs stand apart in the source and are kept apart here.

Legend:
[1] = system: patients with GI or urinary side effects of an acetylcholinesterase inhibitor; experiment: Treatment of side effects of acetylcholinesterase inhibitors (case histories); assay type: in vivo; details: for relief of urinary side effects (polyuria, frequency): Detrol / Detrol LA 2-4 mg daily with donepizil; for relief of GI side effects (nausea, diarrhea, frequent bowel movements, cramps): metoclopramide (Reglan) 5 mg before meals and at bedtime, with an acetylcholinesterase inhibitor
From the text: Metoclopramide (Reglan®) is an […].
The most extreme example of neuropathic pain arises following amputation where there is complete transection of the nerve. Pain complaints are difficult to manage with the usual combinations of anti-seizure drugs, tricyclic anti-depressants and narcotics.

[2] = system: patients with urinary retention; experiment: Patient case histories: urinary retention (voiding trials, post void residuals); details: for post void residuals (PVR's): before 150-200 cc
cutaneous blood flow = details: animal models; cited from earlier work
[3] = system: patients with chronic renal insufficiency; experiment: Patient case histories: chronic renal insufficiency (serum creatinine, BUN); assay type: in vivo, human; details: galantamine 4 mg orally three times daily
From the text: To postpone or avoid the sequelae of chronic renal insufficiency, treatment with acetylcholinesterase inhibitors increase the concentration of acetycholine available to promote blood flow to the renal cortex preventing loss of nephrons and allowing existing renal parenchyma to provide the vital function of the kidney. Just as parasympathetic outflow provide homeostatic neural input to the elimination of function of the intestine, the same parasympathetic innervation provides vasodilatation of the small arterioles supplying the cortex of the kidneys allowing for optimal functioning.

patients with lymphedema = assay type: in vivo, human
From the text: The improvement in perfusion within the small arterioles decreases the hydrostatic pressure at the end arterioles and therefore reduces interstitial fluid accumulation that impedes the return of lymph fluid within the lymphatic vessels. The physics model for this phenomenon makes use of Bernouli's equation and its relationship to a Venturi tube. Hydrostatic pressure proximal to a relative stricture creates a pressure gradient that leads to increased transudation that overwhelms the capacity of the lymphatic system to manage. The vasodilatory effects of the parasympathetic nervous system upon small arterioles produces improved perfusion and lessens the accumulation of lymphedema. A common example of lymphedema occurs following joint replacement surgery with swelling that persists for three to six months and sometimes permanently. Lymphedema following joint replacement surgery slows recovery and creates pain while predisposing to deep vein thrombosis and infection.

[4] = system: patients with phantom pain; experiment: Patient case histories: phantom pain following amputation; assay type: in vivo, human
From the text: The present invention further provides a method of treating phantom pain following amputation in both upper and lower extremities. “Phantom pain” is a phenomenon described following amputation of either an upper or lower extremity. The sensation is common following amputation and present with varying degrees of discomfort and debility. A patient with phantom pain is typically treated with antidepressants, Neurontin® (gabapeninand) narcotics to a varying degree. The use of acetylcholinesterase inhibitors decreases the need for narcotics and generally eliminates the need for poly pharmacy improving pain, enhancing wound healing and improved sleep pattern in amputee patients. The dose of acetylcholinesterase inhibitor is titrated to GI (gastrointestinal) tolerance with bowel movement consistency and frequency the determining factors. Treatment with acetylcholinesterase inhibitor increases the available acetylcholine which is the neurotransmitter responsible for activation of the parasysmpathic nervous system appear responsible for Noxious symptoms of phantom pain for discomfort. The present invention provides a method of treating phantom pain associated with amputation of either upper or lower extremity.

[5] = system: patients with rheumatologic conditions (RA, SLE, PMR, polymyositis); experiment: Patient case histories: rheumatological conditions; assay type: in vivo, human
From the text: The use of an acetylcholinesterase inhibitor raises level of acetylcholine by inhibition of cholinesterase. The Increased levels of acetylcholine stimulate neuronal receptors of the parasympathetic nervous system and non-neuronal receptors associated with the intima of blood vessels and leukocytes. This dual effect of improving flow within the microvascular circulation and stabilization of leukocytes and their adhesion to the wall of blood vessel produces the anti-inflammatory effect that is observed with the use of an acetylcholinesterase inhibitor for treatment of rheumatologic diseases.

[6] = system: patients with Multiple Sclerosis; assay type: in vivo, human; details: galantamine 4 mg orally three times daily, foley catheter removed 48 hours later
From the text: The present invention provides an acetylcholinesterase inhibitor to increase the relative concentration of […] within the central nervous system to improve parasympathetic neural transmission and combat the features of M. S. that often present in a craniosacral distribution. Cranial symptoms include mental status changes, emotional lability as well as optic dysfunction and nystgmus. Cranial nerves that control extracular muscles are also affected. Cranial involvement can also manifest as swallowing problems with frank dysphagia. The sacral manifestations of parasympathic dysfunction relate to bowel and bladder control. The symptoms of spastic bladder, urinary retention and constipation are relieved by treatment with an Acetylcholinesterase inhibitor raising the concentrations of acetylcholine to enhance the neural transmission of the parasympathetic nervous system to facilitate normal bowel and bladder function. The craniosacral manifestations of M.S. are reflected in dysfunctional neural transmission associated with the parasympathetic nervous system and can be ameliorated or corrected by treatment with an acetylcholinesterase inhibitor. Improved blood flow within the vasovasorum of the myelin sheath/nerve is also considered useful in amelioration of MS symptoms. […]

[7] = system: patients with diabetic polyneuropathy; assay type: in vivo, human
From the text: The symptoms of motor and sensory loss of diabetic polyneuropathy are ameliorated by acetylcholinesterase inhibitions by increasing concentration of acetylcholine, the principle neurotransmitter of the parasympathetic nervous system. By augmenting the trophic input of nerves of parasympathic nervous system; pain and dyserethesia are diminished and weakness/atrophy of muscles are diminished. The clinical observation in non-Alzheimer's patients is an improvement in motor and sensory function following treatment with effective doses of an acetylcholinesterase inhibitor. Improved blood flow within the microvascular circulation supplying the vasovasorum of the nerves produces the beneficial effect. By restoring blood flow to the vasovasorum of the nerves ischemic pain is relieved and normal function of the nerve is allowed to occur. The process of vasodilatation of the microvascular circulation is mediated through both neuronal and non-neuronal acetylcholine receptors stimulation by acetylcholine. Enhancement in acetylcholine levels is effected through treatment with acetylcholinesterase inhibitors.
The physiologic shift favoring vasoconstriction that is associated with diabetes is reversed following administration of an acetylcholinesterase inhibitor allowing perfusion of the microvasculature, restoring blood flow to ischemic motor and sensory nerves damaged by the effects of diabetes.

[8] = system: patients with peripheral vascular disease and diabetes mellitus; experiment: Patient case histories: microvascular disease / vascular insufficiency; assay type: in vivo, human; details: galantamine 4-8 mg two to four times daily
From the text: In summary, vascular insufficiency from diabetes is associated with compromise of the microvascular circulation. Treatment with an effective dose of an acetylcholinesterase inhibitor raises the relative concentration of acetylcholine promoting vasodilitation of the microcirculation (end arterioles) through stimulation of neuronal and non-neuronal acetylcholine receptors in the intima of the blood vessels. The beneficial effects of promoting vasodilitation and enhanced tissue perfusion correcting the dystrophic changes and alleviating ischemic pain and ulcers is readily apparent in this series of patients.
The present invention provides a method for the medical management of peripheral vascular disease. The management of peripheral vascular disease with acetylcholinesterase inhibitor addresses the central dilemma in vascular perfusion of the lower extremities. By increasing the relative concentration of acetylcholine, the parasympthetic nervous system is enhanced, improving blood flow at the tissue level by relaxation of the small end arterioles and improving perfusion therefore decreasing vascular edema, enhancing resolution of trohpic ulcers and alleviating rest pain and claudication complaints. The parasympathetic nervous system controls vascular beds in the small arterioles and by increasing the available acetylcholine, dilatation occurs and blood flow improves. By treatment with acetylcholinesterase inhibitors the end results in improved vascular blood supply, decreased congestion at the small arterioles level and improved blood supply. This is particularly necessary in diabetic patients. The presence of non-neuronal acetylcholine receptors with the intima of blood vessels at the microvascular level represents a second physiologic mechanism whereby dilatation of small blood vessels is facilitated by the use of an acetylcholinesterase inhibitor. This latter mechanism owing to the sensitive nature of the cholinesterases associated with the non neuronal acetylcholine system provides sustained cholinergic activity impacting the microvascular circulation and improving perfusion at the critical end arteriole-capillary-venule level.

[9] = system: patients with myofascial pain / fibromyalgia; experiment: Patient case histories: fibromyalgia / myofascial pain syndrome; assay type: in vivo, human
From the text: The present invention provides a method for treating fibromyalgia and myofascial pain syndrome by increasing tissue levels of acetylcholine. Acetylcholine is the neurotransmitter of the parasympathic nervous system. The inventive method increases the relative amount of parasympathetic transmission and thereby facilitates resolution of the pain areas and diminishes the need for narcotics and polypharmacy. The reduction in the use of narcotics, NSAIDs, and tricyclic antidepressants and other medications used for pain having their deleterious side effects is a major benefit. By administration of acetyl cholinesterase inhibitor, the relative concentrations of acetylcholine are increased and available to propagate the impulses of the parasympathic nervous systems and within the non-neuronal acetylcholine receptors diminishing pain and spasms. […] The influence of non-neuronal acetylcholine receptors affected by enhanced levels of acetylcholine produces a reduction in pro-inflammatory mediators and increased blood flow to the nerve fibers involved in pain transmission. The net effect is a reduction in inflammation and improved blood flow to the vasovasorum of the affected nerves reducing the painful sensations.

[10] = system: patients with Parkinson's disease; details: rivastigmine 1.5-3 mg twice daily
[11] = system: patients with neuropathic pain; details: rivastigmine test dose
[12] = system: regional blood flow in the brain; details: PET scanning; Alzheimer's patients and normal subjects; cited from earlier work
[13] = rivastigmine 1.5 mg twice daily

Cc1ccc(O)c([C@H](CCN(C(C)C)C(C)C)c2ccccc2)c1 [Detrol LA, tolterodine]
relief of urinary side effects (polyuria, frequency) [1]: prompt reduction in their urinary frequency; also recorded: able to tolerate this regimen | relief of urinary side effects (polyuria, frequency) ([1]; listed as Detrol): treated successfully

CCOc1ccccc1OCCN[C@H](C)Cc1ccc(OC)c(S(N)(=O)=O)c1 [Flomax]
voiding trial ([2]; Flomax 0.4 mg, then 0.8 mg, residuals in excess of 300 cc's before): first voiding trial was unsuccessful; also recorded: second voiding trial was also unsuccessful

CC(=O)OC(C)C[N+](C)(C)C (stereo not shown) [Methacholine]
cutaneous blood flow and skin temperature (cutaneous blood flow): increases cutaneous blood flow and skin temperature

CCN(CC)CCNC(=O)c1cc(Cl)c(N)cc1OC [Reglan, metoclopramide]
relief of GI side effects (nausea, diarrhea, frequent bowel movements, cramps) [1]: able to continue treatment with donepizil; also recorded: prompt resolution of their GI complaints; also recorded: prompt relief of their GI complaints; also recorded: treated successfully | relief of GI side effects (nausea, diarrhea, frequent bowel movements, cramps) ([1]; listed as metoclopramide): easily managed; also recorded: ameliorated or eliminated

COc1ccc2c3c1O[C@H]1C[C@@H](O)C=C[C@@]31CCN(C)C2 [galantamine]
post void residuals (PVR's) ([2]; galantamine 4 mg orally three times daily): under 100 cc | side effects ([2]; galantamine 4 mg three times daily to 8 mg two or three times daily): no untoward side effects; also recorded: mild nausea (without emesis) | post void residuals (PVR's) ([2]; galantamine 8 mg orally twice daily): ~50 cc | serum creatinine ([3]; before treatment 1.8): 1.4 | BUN (blood urea nitrogen) ([3]; before treatment 32): 21 | side effects (patients with lymphedema; galantamine 4 mg orally three times daily, asthma patient): without compromise of their pulmonary condition | side effects ([4]; galantamine 4 mg BID titrated to four times a day): without nausea/vomiting or GI upset | use of Oxycodone/APAP ([4]; galantamine 8 mg BID over two weeks, before: 5 tablets per day): 2-3 tablets per week | side effects ([5]; galantamine 4-8 mg three times daily): no adverse side effects of diarrhea or nausea | post void residuals [6]: < 100 cc | improvement in Left foot drop ([7]; galantamine titrated to 8 mg TID (a person)): 80-85% | side effects [8]: No symptoms of diarrhea or gastroesophageal reflux disease (GERD) were reported; also recorded: no untoward side effects

CCN(C)C(=O)Oc1cccc([C@H](C)N(C)C)c1 [rivastigmine]
side effects (patients with lymphedema; [13]): no ill side effects | side effects ([9]; rivastigmine): no ill effects; also recorded: no adverse side effects | clinical outcome (pain) [9, 13]: significant improvement; also recorded: greater control of their pain | clinical outcome (pain) ([9]; rivastigmine 3 mg twice daily): near complete alleviation in their pain; also recorded: pain symptoms became less frequent | clinical outcome (narcotic use) ([9]; rivastigmine 4 mg orally twice daily titrated upward to 8 mg three times daily): use of narcotics was completely eliminated | side effects [10]: no negative side effects | clinical outcome (swelling, warmth, pain) ([5]; rivastigmine 1.5 mg orally twice daily, Rheumatoid Arthritis flair-up): signs of swelling and warmth improved but the patient still had complaints of pain | clinical outcome (pain, swelling) ([5]; rivastigmine 3 mg orally twice daily, Rheumatoid Arthritis flair-up): pain symptoms resolved within a day; also recorded: concomitant improvement in their lower extremity swelling | side effects ([5]; rivastigmine 1.5-3 mg twice daily): no adverse side effects such as dyspepsia, diarrhea or polyuria | recurrence under prophylaxis ([5]; rivastigmine lower dose for prophylaxis, three month): no recurrence of pain or swelling | clinical outcome (phantom pain) [11]: notable improvement in their phantom pain within one hour | regional blood flow in the brain / CNS structures [12]: Regional blood flow is increased; also recorded: improve blood flow to CNS structures; also recorded: improve regional blood flow in the brain | course after the drug was withdrawn or lapsed ([7]; drug stopped after initial improvement): complaints of weakness and loss of ambulatory ability
